Holding throughout (assay type): biochemical
The target in one experiment is PKR T384W (Homo sapiens, UniProt P30613, T384W). In words: PKR T384W Single Point Percent Activation Assay. The note with it: read-out: Act. % 384W. On the procedure: PKR T384W Single Point Percent Activation Assay
A compound described herein was diluted with DMSO and tested at 1 μM concentration. The enzyme was diluted in 1× Buffer: (100 mM KCl, 50 mM Tris 7.5, 5 mM MgCl2, 1 mM DTT, 0.03% BSA). 2 μL of compound solution was first added into wells, and then 180 μL enzyme solution was added. Assays were assembled except for ADP, and plates were stored for 60 minutes at RT. 20 μL ADP was added to start the assay and assay output was evaluated using OD340 at SpectraMax. The assay was run at room temperature.
Final concentration: PKR T384W soluble (300 ng/well), Tris pH 7.5 (50 mM), KCl (100 mM), MgCl2 (5 mM), ADP (0.08 mM), PEP (0.23 mM), NADH (180 μM), LDH (0.5 units, Sigma 59023), DTT (1 mM) and BSA (0.03%).

Another experiment deals with PKR wt (Homo sapiens, UniProt P30613). In words: PKR WT Single Point Percent Activation Assay. On the procedure: PKR WT Single Point Percent Activation Assay
Sequence of PKR wt (P30613 whole entry): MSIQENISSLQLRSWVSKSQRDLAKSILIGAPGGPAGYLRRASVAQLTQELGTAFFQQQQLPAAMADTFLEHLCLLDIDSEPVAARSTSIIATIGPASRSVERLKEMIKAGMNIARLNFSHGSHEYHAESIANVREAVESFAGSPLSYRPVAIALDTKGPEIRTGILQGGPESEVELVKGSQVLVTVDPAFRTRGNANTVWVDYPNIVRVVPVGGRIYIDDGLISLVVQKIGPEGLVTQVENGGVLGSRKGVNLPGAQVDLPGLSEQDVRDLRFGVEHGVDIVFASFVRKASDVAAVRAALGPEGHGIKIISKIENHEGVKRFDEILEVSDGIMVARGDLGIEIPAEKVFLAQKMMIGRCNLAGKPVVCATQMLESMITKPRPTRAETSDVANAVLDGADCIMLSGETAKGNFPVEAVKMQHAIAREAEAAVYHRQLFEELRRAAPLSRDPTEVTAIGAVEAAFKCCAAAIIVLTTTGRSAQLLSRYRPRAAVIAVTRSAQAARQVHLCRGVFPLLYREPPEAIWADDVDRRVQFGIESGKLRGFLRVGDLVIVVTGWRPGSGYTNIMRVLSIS
(§1) A compound described herein was diluted with DMSO and tested at 1 μM concentration. The enzyme was diluted in 1× Buffer: (100 mM KCl, 50 mM Tris 7.5, 5 mM MgCl2, 1 mM DTT, 0.03% BSA). 2 μL of compound solution was first added into wells, and then 180 μL of enzyme solution was added. Assays were assembled except for ADP, and plates were stored for 60 minutes at RT. 20 μL ADP was added to start the assay and assay output was evaluated using OD340 at SpectraMax. The assay was run at room temperature.
Final concentration: PKR wt (100 ng/well), Tris pH 7.5 (50 mM), KCl (100 mM), MgCl2 (5 mM), ADP (0.48 mM), PEP (0.15 mM), NADH (180 μM), LDH (0.5 units, Sigma 59023), DTT (1 mM) and BSA (0.03%).

The next experiment addresses PKR R532W (Homo sapiens, UniProt P30613, R532W). As to the kind of experiment: PKR R532W Single Point Percent Activation Assay. The note with it: read-out: Act, % 532W. On the procedure:
PKR R532W Single Point Percent Activation Assay
as §1
Final concentration: PKR R532W (100 ng/well), Tris pH 7.5 (50 mM), KCl (100 mM), MgCl2 (5 mM), ADP (0.36 mM), PEP (0.1 mM), NADH (180 μM), LDH (0.5 units, Sigma 59023), DTT (1 mM) and BSA (0.03%).

Another experiment has as its target PKR R510Q (Homo sapiens, UniProt P30613, R510Q). In words: PKR R510Q Single Point Percent Activation Assay. The note with it: read-out: Act. % 510Q. On the procedure: PKR R510Q Single Point Percent Activation Assay
as §1
Final concentration: PKR R510Q (40 ng/well), Tris pH 7.5 (50 mM), KCl (100 mM), MgCl2 (5 mM), ADP (0.2 mM), PEP (0.11 mM), NADH (180 μM), LDH (0.5 units, Sigma 59023), DTT (1 mM) and BSA (0.03%).

Sequence of PKR T384W (P30613 whole entry T384W): as the sequence (P30613 whole entry) above, with T384W counted along it
Sequence of PKR R510Q (P30613 whole entry R510Q): as the sequence (P30613 whole entry) above, with R510Q counted along it
Sequence of PKR R532W (P30613 whole entry R532W): as the sequence (P30613 whole entry) above, with R532W counted along it

Consider `C[C@@H]1CN(C(=O)O[C@@H]2CCOC2)CCN1C(=O)c1ccc(NS(=O)(=O)c2cccc3cccnc23)cc1`, for which the activation at 1 µM is 1 to 100% on PKR T384W, 101 to 500% at PKR wt, 101 to 500% on PKR R532W and 1 to 100% at PKR R510Q.
In the case of `C[C@H]1CN(C(=O)O[C@@H]2CCOC2)CCN1C(=O)c1ccc(NS(=O)(=O)c2cccc3cccnc23)cc1`, the activation at 1 µM on PKR T384W lay in the range of 101 to 500%; at PKR wt, 101 to 500%; on PKR R532W, 101 to 500%; at PKR R510Q, 1 to 100%.
Take `O=C(c1ccc(NS(=O)(=O)c2cccc3cccnc23)cc1)N1CC2CCC(C1)N2Cc1ccccc1`: the activation at 1 µM on PKR T384W, at PKR wt, on PKR R532W and on PKR R510Q was 101 to 500% each time.
Turning to `CC(c1ccc(F)cc1)N1CCN(C(=O)c2ccc(NS(=O)(=O)c3cccc4cccnc34)cc2)[C@H](C)C1` (some centres unmarked), the activation at 1 µM at PKR T384W, at PKR wt, on PKR R532W and at PKR R510Q was 101 to 500% in each case.
As for `CC(c1cc(F)c(F)cc1F)N1CCN(C(=O)c2ccc(NS(=O)(=O)c3cccc4cccnc34)cc2)[C@H](C)C1` (some centres unmarked), the activation at 1 µM fell in the range of 1 to 100% at PKR T384W, 101 to 500% at PKR wt, 101 to 500% on PKR R532W and 101 to 500% on PKR R510Q.
On to `CC1CN(Cc2ccc(Cl)c(F)c2)CC(C)N1C(=O)c1ccc(NS(=O)(=O)c2cccc3cccnc23)cc1` (centres unmarked), for which the activation at 1 µM at PKR T384W lay in the range of 101 to 500%; at PKR wt, 101 to 500%; on PKR R532W it was 1 to 100%; at PKR R510Q it was 101 to 500%.
As to `COc1cccc(CN2CCN(C(=O)c3ccc(NS(=O)(=O)c4cccc5cccnc45)cc3)[C@H](C)C2)c1OC`, the activation at 1 µM at PKR T384W is 101 to 500%; at PKR wt it was 101 to 500%; at PKR R532W, 101 to 500%; at PKR R510Q it was 1 to 100%.
Turning to `C[C@H]1CN(Cc2cc(F)c(F)c(F)c2)CCN1C(=O)c1ccc(NS(=O)(=O)c2cccc3cccnc23)cc1`, the activation at 1 µM on PKR T384W lay within 101 to 500%; on PKR wt it was 1 to 100%; at PKR R532W, 1 to 100%; at PKR R510Q it was 1 to 100%.
As to `CCOC(=O)N1CCN(C(=O)c2ccc(NS(=O)(=O)c3cccc4cccnc34)cc2)c2ccccc21`, the activation at 1 µM at PKR T384W lay within 1 to 100%; on PKR wt it was 101 to 500%; at PKR R532W, 101 to 500%; at PKR R510Q it was 101 to 500%.
Turning to `C[C@@H]1CN(C(=O)c2ccc(NS(=O)(=O)c3cccc4cccnc34)cc2)CCN1C(=O)c1ccccn1`, the activation at 1 µM at PKR T384W is 101 to 500%; on PKR wt it was 101 to 500%; at PKR R532W, 1 to 100%; at PKR R510Q it was 1 to 100%.
`CC(c1c(F)cc(F)cc1F)N1CCN(C(=O)c2ccc(NS(=O)(=O)c3cccc4cccnc34)cc2)[C@H](C)C1` (some centres unmarked): the activation at 1 µM at PKR T384W fell in the range of 101 to 500%; on PKR wt it was 101 to 500%; at PKR R532W, 101 to 500%; on PKR R510Q it was 1 to 100%.
`O=C(c1ccc(NS(=O)(=O)c2cccc3cccnc23)cc1)N1CCn2c(nnc2-c2cc(F)cc(F)c2)C1`: the activation at 1 µM on PKR T384W, on PKR wt, at PKR R532W and at PKR R510Q was 101 to 500% in each case.
On to `C[C@H]1CN(Cc2ccc(F)cc2)CCN1C(=O)c1ccc(NS(=O)(=O)c2cccc3cccnc23)cc1`, for which the activation at 1 µM at PKR T384W lay within 101 to 500%; at PKR wt it was 101 to 500%; on PKR R532W, 1 to 100%; at PKR R510Q it was 101 to 500%.
Turning to `CCOC(=O)N1[C@H](C)CN(C(=O)c2ccc(NS(=O)(=O)c3cccc4cccnc34)cc2)C[C@@H]1C`, the activation at 1 µM at PKR T384W, on PKR wt, at PKR R532W and on PKR R510Q was 101 to 500% in each case.

The values above are taken from US9404081B2, “Pyruvate kinase activators for use in therapy” (AGIOS PHARMACEUTICALS, INC., priority 2011, dated 2016).
